# PubChem BioAssay AID2060611 (Molecular Pharmacology Branch, DTP, NCI, 2025)
# Several values for one entry are separate records, joined by “and”; a condition that tells them apart may be missing. Identical values can stand only once.
# System: 628569-122-R-J1-PDC complex spheroid viability
# Test: Anticancer human tumor 628569-122-R-J1-PDC patient-derived head and neck squamous carcinoma cell line growth inhibition [CLK]
# Settings: for viability, T/C: stronger effect = lower value
# In short: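 Multi-cell-type spheroids combined patient-derived tumor cells with HUVEC endothelial cells and human mesenchymal stem cells. Paired agents were dosed in half-log steps down from about clinical Cmax, or from 10 microM where Cmax was unknown.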
# [1] = curve of first compound, second compound 0.0316 µM
# [2] = curve of first compound, second compound 0.1 µM
# [3] = curve of first compound, second compound 0.316 µM
# [4] = curve of first compound, second compound 1 µM
# [5] = curve of first compound, second compound 3.16 µM
# [6] = curve of first compound, second compound 10 µM
# [7] = second compound 0.0316 µM, first compound 0.0316 µM
# [8] = second compound 0.0316 µM, first compound 0.1 µM
# [9] = second compound 0.0316 µM, first compound 0.316 µM
# [10] = second compound 0.0316 µM, first compound 1 µM
# [11] = second compound 0.0316 µM, first compound 3.16 µM
# [12] = second compound 0.0316 µM, first compound 10 µM
# [13] = second compound 0.1 µM, first compound 0.0316 µM
# [14] = second compound 0.1 µM, first compound 0.1 µM
# [15] = second compound 0.1 µM, first compound 0.316 µM
# [16] = second compound 0.1 µM, first compound 1 µM
# [17] = second compound 0.1 µM, first compound 3.16 µM
# [18] = second compound 0.1 µM, first compound 10 µM
# [19] = second compound 0.316 µM, first compound 0.0316 µM
# [20] = second compound 0.316 µM, first compound 0.1 µM
# [21] = second compound 0.316 µM, first compound 0.316 µM
# [22] = second compound 0.316 µM, first compound 1 µM
# [23] = second compound 0.316 µM, first compound 3.16 µM
# [24] = second compound 0.316 µM, first compound 10 µM
# [25] = second compound 1 µM, first compound 0.0316 µM
# [26] = second compound 1 µM, first compound 0.1 µM
# [27] = second compound 1 µM, first compound 0.316 µM
# [28] = second compound 1 µM, first compound 1 µM
# [29] = second compound 1 µM, first compound 3.16 µM
# [30] = second compound 1 µM, first compound 10 µM
# [31] = second compound 3.16 µM, first compound 0.0316 µM
# [32] = second compound 3.16 µM, first compound 0.1 µM
# [33] = second compound 3.16 µM, first compound 0.316 µM
# [34] = second compound 3.16 µM, first compound 1 µM
# [35] = second compound 3.16 µM, first compound 3.16 µM
# [36] = second compound 3.16 µM, first compound 10 µM
# [37] = second compound 10 µM, first compound 0.0316 µM
# [38] = second compound 10 µM, first compound 0.1 µM
# [39] = second compound 10 µM, first compound 0.316 µM
# [40] = second compound 10 µM, first compound 1 µM
# [41] = second compound 10 µM, first compound 3.16 µM
# [42] = second compound 10 µM, first compound 10 µM
# 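Also: spheroids exposed to agents for seven days before readout.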
# 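For viability, T/C in this document: 100% = DMSO vehicle control viability.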
compound,measurement,setting,value
Nc1ccn(C2OC(CO)C(O)C2(F)F)c(=O)n1 (stereo unspecified) + CNC(=O)c1ccc(Nc2nc(OC3CCCC3)c3c(-c4ccc5nc(C)oc5c4)c[nH]c3n2)c(OC)c1,IC50,[1],0.2 µM
same,IC50,[2],> 10 µM
same,IC50,[3],< 0.0316 µM
same,IC50,[4],< 0.0316 µM
same,IC50,[5],< 0.0316 µM
same,IC50,[6],< 0.0316 µM
same,"viability, T/C",[7],65.9%
same,"viability, T/C",[8],51.8%
same,"viability, T/C",[9],50.4%
same,"viability, T/C",[10],40.7%
same,"viability, T/C",[11],50.8%
same,"viability, T/C",[12],51.8%
same,"viability, T/C",[13],53.1%
same,"viability, T/C",[14],52.3%
same,"viability, T/C",[15],49.5%
same,"viability, T/C",[16],43.9%
same,"viability, T/C",[17],57.2%
same,"viability, T/C",[18],49.3%
same,"viability, T/C",[19],49.9%
same,"viability, T/C",[20],50.3%
same,"viability, T/C",[21],50.5%
same,"viability, T/C",[22],40.6%
same,"viability, T/C",[23],47.3%
same,"viability, T/C",[24],51.8%
same,"viability, T/C",[25],43.2%
same,"viability, T/C",[26],47%
same,"viability, T/C",[27],42.1%
same,"viability, T/C",[28],35.8%
same,"viability, T/C",[29],32.8%
same,"viability, T/C",[30],45.6%
same,"viability, T/C",[31],45%
same,"viability, T/C",[32],43.6%
same,"viability, T/C",[33],38.2%
same,"viability, T/C",[34],33.5%
same,"viability, T/C",[35],50.3%
same,"viability, T/C",[36],39.5%
same,"viability, T/C",[37],49.3%
same,"viability, T/C",[38],46.1%
same,"viability, T/C",[39],39.5%
same,"viability, T/C",[40],31.3%
same,"viability, T/C",[41],36.6%
same,"viability, T/C",[42],39.8%
CC1(C)CCC(CN2CCN(c3ccc(C(=O)NS(=O)(=O)c4ccc(NCC5CCOCC5)c([N+](=O)[O-])c4)c(Oc4cnc5[nH]ccc5c4)c3)CC2)=C(c2ccc(Cl)cc2)C1 + CNC(=O)c1ccc(Nc2nc(OC3CCCC3)c3c(-c4ccc5nc(C)oc5c4)c[nH]c3n2)c(OC)c1,IC50,[1],> 10 µM
same,IC50,[2],> 10 µM
same,IC50,[3],> 10 µM
same,IC50,[4],> 10 µM
same,IC50,[5],< 0.0316 µM
same,IC50,[6],0.0802 µM
same,"viability, T/C",[7],124%
same,"viability, T/C",[8],102%
same,"viability, T/C",[9],96.6%
same,"viability, T/C",[10],94.7%
same,"viability, T/C",[11],111%
same,"viability, T/C",[12],75.4%
same,"viability, T/C",[13],65.9%
same,"viability, T/C",[14],55.9%
same,"viability, T/C",[15],60.4%
same,"viability, T/C",[16],57.5%
same,"viability, T/C",[17],60.4%
same,"viability, T/C",[18],63.4%
same,"viability, T/C",[19],52.7%
same,"viability, T/C",[20],51.8%
same,"viability, T/C",[21],53.6%
same,"viability, T/C",[22],57.9%
same,"viability, T/C",[23],69.7%
same,"viability, T/C",[24],51%
same,"viability, T/C",[25],48.1%
same,"viability, T/C",[26],51.4%
same,"viability, T/C",[27],53.2%
same,"viability, T/C",[28],59.6%
same,"viability, T/C",[29],49.4%
same,"viability, T/C",[30],53.6%
same,"viability, T/C",[31],46.1%
same,"viability, T/C",[32],48.4%
same,"viability, T/C",[33],53.5%
same,"viability, T/C",[34],51.4%
same,"viability, T/C",[35],45.8%
same,"viability, T/C",[36],41.2%
same,"viability, T/C",[37],59.9%
same,"viability, T/C",[38],48.7%
same,"viability, T/C",[39],41.1%
same,"viability, T/C",[40],43.5%
same,"viability, T/C",[41],47.2%
same,"viability, T/C",[42],38.6%
COc1ccc([C@@H](O)c2cc(-c3ncnc4cc(N5CCOCC5)ccc34)c(F)cc2Cl)nn1 + CN1CCN(c2cc(C(=O)Nc3cc4cc(-c5cnn(C)c5)ccc4cn3)ccn2)CC1,IC50,[1],2.1 µM
same,IC50,[2],0.314 µM
same,IC50,[3],< 0.0316 µM
same,IC50,[4],< 0.0316 µM
same,IC50,[5],< 0.0316 µM
same,IC50,[6],< 0.0316 µM
same,"viability, T/C",[7],95.9%
same,"viability, T/C",[8],88.2%
same,"viability, T/C",[9],68.8%
same,"viability, T/C",[10],71.6%
same,"viability, T/C",[11],37.3%
same,"viability, T/C",[12],27.3%
same,"viability, T/C",[13],86.9%
same,"viability, T/C",[14],61.7%
same,"viability, T/C",[15],48.8%
same,"viability, T/C",[16],42.6%
same,"viability, T/C",[17],34.5%
same,"viability, T/C",[18],22.8%
same,"viability, T/C",[19],27.4%
same,"viability, T/C",[20],22.6%
same,"viability, T/C",[21],21.3%
same,"viability, T/C",[22],15.6%
same,"viability, T/C",[23],13.4%
same,"viability, T/C",[24],7.64%
same,"viability, T/C",[25],5.08%
same,"viability, T/C",[26],4.84%
same,"viability, T/C",[27],10.1%
same,"viability, T/C",[28],7.13%
same,"viability, T/C",[29],6.18%
same,"viability, T/C",[30],5.7%
same,"viability, T/C",[31],7.69%
same,"viability, T/C",[32],7.5%
same,"viability, T/C",[33],9.02%
same,"viability, T/C",[34],9.74%
same,"viability, T/C",[35],6.25%
same,"viability, T/C",[36],6.05%
same,"viability, T/C",[37],2.13%
same,"viability, T/C",[38],3.81%
same,"viability, T/C",[39],3.72%
same,"viability, T/C",[40],1.54%
same,"viability, T/C",[41],2.76%
same,"viability, T/C",[42],1%
NC(=O)C(=Cn1cnc(-c2cc(C(F)(F)F)cc(C(F)(F)F)c2)n1)c1cncnc1,"viability, T/C",compound 0.00949 µM,71.1% and 74%
same,"viability, T/C",compound 0.03 µM,66.9% and 66.1%
same,"viability, T/C",compound 0.0949 µM,52.1% and 56.7%
same,"viability, T/C",compound 0.3 µM,63.8% and 49.3%
same,"viability, T/C",compound 0.949 µM,44.3% and 35.1%
same,"viability, T/C",compound 3 µM,41.7% and 33.4%
same,IC50,curve of compound,0.666 µM and 0.21 µM
CC(=O)O[C@H]1C(=O)[C@@]2(C)[C@H]([C@H](OC(=O)c3ccccc3)[C@]3(O)C[C@H](OC(=O)[C@H](O)[C@@H](NC(=O)c4ccccc4)c4ccccc4)C(C)=C1C3(C)C)[C@]1(OC(C)=O)CO[C@@H]1C[C@@H]2O,"viability, T/C",compound 0.0316 µM,29.1% and 29.6%
same,"viability, T/C",compound 0.1 µM,30.8% and 26.9%
same,"viability, T/C",compound 0.316 µM,27.4% and 26.9%
same,"viability, T/C",compound 1 µM,27.5% and 24.6%
same,"viability, T/C",compound 3.16 µM,27.2% and 33.9%
same,"viability, T/C",compound 10 µM,44.5% and 41.1%
same,IC50,curve of compound,< 0.0316 µM
CC(CO)NC(=O)c1cc(-c2ccc(Cl)cc2)nn(-c2cnn(C)c2)c1=O (stereo unspecified),"viability, T/C",compound 0.0316 µM,112% and 116%
same,"viability, T/C",compound 0.1 µM,123% and 158%
same,"viability, T/C",compound 0.316 µM,177% and 202%
same,"viability, T/C",compound 1 µM,169% and 217%
same,"viability, T/C",compound 3.16 µM,175% and 243%
same,"viability, T/C",compound 10 µM,149% and 181%
same,IC50,curve of compound,> 10 µM
O=c1[nH]cc(F)c(=O)[nH]1 + CN1CCN(c2cc(C(=O)Nc3cc4cc(-c5cnn(C)c5)ccc4cn3)ccn2)CC1,IC50,[1],> 10 µM
same,IC50,[2],> 10 µM
same,IC50,[3],< 0.0316 µM
same,IC50,[4],< 0.0316 µM
same,IC50,[5],< 0.0316 µM
same,IC50,[6],< 0.0316 µM
same,"viability, T/C",[7],84.2%
same,"viability, T/C",[8],97.8%
same,"viability, T/C",[9],93.7%
same,"viability, T/C",[10],102%
same,"viability, T/C",[11],88.8%
same,"viability, T/C",[12],69.3%
same,"viability, T/C",[13],64.1%
same,"viability, T/C",[14],69.9%
same,"viability, T/C",[15],70.5%
same,"viability, T/C",[16],71.6%
same,"viability, T/C",[17],64.8%
same,"viability, T/C",[18],54.7%
same,"viability, T/C",[19],35.7%
same,"viability, T/C",[20],30.7%
same,"viability, T/C",[21],37.5%
same,"viability, T/C",[22],44.7%
same,"viability, T/C",[23],38.3%
same,"viability, T/C",[24],29.8%
same,"viability, T/C",[25],12.8%
same,"viability, T/C",[26],6.16%
same,"viability, T/C",[27],6.71%
same,"viability, T/C",[28],8.95%
same,"viability, T/C",[29],7.13%
same,"viability, T/C",[30],5.19%
same,"viability, T/C",[31],9.61%
same,"viability, T/C",[32],7.33%
same,"viability, T/C",[33],9.99%
same,"viability, T/C",[34],8.76%
same,"viability, T/C",[35],12%
same,"viability, T/C",[36],4.06%
same,"viability, T/C",[37],11%
same,"viability, T/C",[38],2.54%
same,"viability, T/C",[39],4.42%
same,"viability, T/C",[40],2.63%
same,"viability, T/C",[41],2.63%
same,"viability, T/C",[42],3.59%
Cn1ncnc1[C@H]1c2n[nH]c(=O)c3cc(F)cc(c23)N[C@@H]1c1ccc(F)cc1,"viability, T/C",compound 0.000316 µM,90.7% and 78.8%
same,"viability, T/C",compound 0.001 µM,96.5% and 103%
same,"viability, T/C",compound 0.00316 µM,97.3% and 61.4%
same,"viability, T/C",compound 0.01 µM,89.6% and 93.2%
same,"viability, T/C",compound 0.0316 µM,67.8% and 81.5%
same,"viability, T/C",compound 0.1 µM,69.2% and 63.6%
same,IC50,curve of compound,> 0.1 µM
